Measurements as given in patent US20220378807A1, “DELIVERY OF A COOLING AGENT TO THE PHARYNGEAL-ESOPHAGEAL SURFACE” (priority 2019, published 2022).
≈ marks a conversion by molar mass, not a printed value. Entries after “also recorded” stand apart in the source; their conditions may differ. Where two headings read alike, the source gives them in different places. Values belong to the compound of their own block, whether it stands above or below them.

Key:
[1] = Water solubility of 1-dialkylphosphinoylalkanes; type: physicochemical; details: R1R2R3P=O, by R1,R2 and R3
[2] = test system: throat (Adam's apple, jugular notch, upper chest); type: in vivo, human; set-up: key to Jugular Notch / Sternum: cooling rated on a 0-3 scale; Onset: unit not given here; details: for Duraton: duration of cooling after swallowing Shaped-Gel; for Discomfort: in vivo; for Onset: onset of cooling after swallowing Shaped-Gel, no unit in head (min); for Jugular Notch: cooling felt at jugular notch
Experimental: Shaped-Gel having total weight of 0.4 to 1.2 g containing 0.4 to 1.5% by weight (5 mg/g to 15 mg/g) are prepared and tested. The following examples illustrate the invention, but are not intended to limit the scope of the present invention. A Shaped-Gel in accordance with the present invention was prepared with the following composition.
Shaped-Gels were prepared by these procedures. First step, the cooling agent was accurately weighed and place in a 60 mL plastic container. Then glycerol, water, and gelatin was added to the container and centrifuged for 2 min in a SpeedMixer (FlackTek, Inc.) at 3000 rpm. Then gelatin powder was added and the mixture centrifuged for 3 min. The container was warmed by placing it in a beaker containing hot water (80-85° C.) for 15 min. The container was then centrifuged for 5 min. The liquid mix was cooled and dispensed onto silicon molds with a plastic dropper, and placed in a refrigerator. After one hour, the gels were solidified, removed from the mold with a plastic tweezer, weighed and placed on wax paper and later stored in blister pockets. […] In preliminary studies, the shape of the Shaped-Gel was varied. Square, rectangular, spherical, hemispherical, toroidal, and pentagram Shaped-Gels were prepared at sizes ranging from 0.4 to 1.2 g. A flat shape wherein the shortest diameter was about 20% of the longest axis was preferred because it could be placed flat on the back of the tongue. A Shaped-Gel shaped as a rectangular prism of 2.75 mm×15 mm×15 mm=0.63 cm3 and weighing ˜0.6 g was acceptable to subjects. A toroid, much like a “LiveSaver” mint was also acceptable if the size was ˜0.8 g. Test Panel: The volunteers for testing the Shaped-Gel were six subjects, four males and two females, aged 50 to 76 years. Each Shaped-Gel was tested for at least four trials in at least three subjects. The concentration of the cooling agent in the Shaped-Gel varied from 0.5 to 2%. The duration of observation for each trial usually lasted for not more than 1.5 hours. Subjects were instructed to swallow the Shaped-Gel with a sip of […] water. Cooling sensations were rated on a scale of 0, 1, 2, 3, at intervals of 3 min, 5 min, and then at 10 min intervals. If a cooling value exceeded 2, the subject noted whether the cooling was felt at the level of the Adam's apple, jugular notch or upper chest. Ancillary effects were also recorded.

Eyelids Surfaces = assay: Cooling on eyelid surfaces; type: in vivo; details: p-menthane compounds, Table 8
Philtrum Skin = assay: Cooling on philtrum skin; type: in vivo; details: p-menthane compounds, Table 8
[3] = target: T1, cloned hTRPM8 channel (human TRPM8 gene, expressed in CHO cells) (Homo sapiens, UniProt Q7Z2W7); assay: TRPM8 agonist activity, Fluo-8 calcium FLIPR assay; type: cell-based; details: for Potency relative to menthol / EC50: p-menthane compounds, Table 8; for EC50: 95% limits printed in line below; for Relative Potency to L-menthol: from TRPM8 EC50, menthol = 1.0
T1 construct: host or cells: CHO cells
Experimental: In the first set of data, the potency and in vitro effects of test compounds were evaluated on cloned hTRPM8 channel (encoded by the human TRPM8 gene, expressed in CHO cells) using a Fluo-8 calcium kit and a Fluorescence Imaging Plate Reader (FLIPR^TETRATM) instrument. […] Test solutions were in HEPES-buffered saline, 384-well plates, and placed into the FLIPR instrument (Molecular Devices Corporation, Union City, Calif., USA). […] The test cells were Chinese Hamster Ovary (CHO) cells stably transfected with human TRPM8 cDNAs. The concentration-response data were analyzed via FLIPR Control software and fitted to a Hill equation for the EC50.

Oral Cavity and Pharynx [4] = assay: Study 2: sensory qualities of compounds applied to oral cavity and pharynx; type: in vivo, human; details: for sensations produced (cooling intensity, cold discomfort, adverse taste): ~0.8 mL per dose to base of tongue, four volunteers
Experimental: Tests were on four volunteers, with 3 to 5 trials per substance. Compounds were prepared in cherry-flavored Shaped-Gel at 5 mg/mL and administered ˜0.8 mL per dose with a 2 mL plastic vial to the base of the tongue. The subjects asked to rate the sensations for cooling intensity, cold discomfort and adverse taste.

[5] = target: T2, TRPV1 channels (human TRPV1 gene expressed in HEK293 cells) (Homo sapiens, UniProt Q8NER1); details: data in Yang et al. BMC Ophthalmology 17:101 and Wei US 9,956,232; cited from earlier work
T2 construct: expressed in transfected cells; host or cells: HEK293 cells

[6] = target: T3, TRPA1 channels (human TRPA1 gene expressed in CHO cells) (Homo sapiens, UniProt O75762); details: data in Yang et al. BMC Ophthalmology 17:101 and Wei US 9,956,232; cited from earlier work
T3 construct: expressed in transfected cells; host or cells: CHO cells

Oral Cavity and Pharynx [7] = assay: Study 2: sensory qualities of compounds applied to oral cavity and pharynx; type: in vivo, human

T1 sequence (Q7Z2W7 whole entry): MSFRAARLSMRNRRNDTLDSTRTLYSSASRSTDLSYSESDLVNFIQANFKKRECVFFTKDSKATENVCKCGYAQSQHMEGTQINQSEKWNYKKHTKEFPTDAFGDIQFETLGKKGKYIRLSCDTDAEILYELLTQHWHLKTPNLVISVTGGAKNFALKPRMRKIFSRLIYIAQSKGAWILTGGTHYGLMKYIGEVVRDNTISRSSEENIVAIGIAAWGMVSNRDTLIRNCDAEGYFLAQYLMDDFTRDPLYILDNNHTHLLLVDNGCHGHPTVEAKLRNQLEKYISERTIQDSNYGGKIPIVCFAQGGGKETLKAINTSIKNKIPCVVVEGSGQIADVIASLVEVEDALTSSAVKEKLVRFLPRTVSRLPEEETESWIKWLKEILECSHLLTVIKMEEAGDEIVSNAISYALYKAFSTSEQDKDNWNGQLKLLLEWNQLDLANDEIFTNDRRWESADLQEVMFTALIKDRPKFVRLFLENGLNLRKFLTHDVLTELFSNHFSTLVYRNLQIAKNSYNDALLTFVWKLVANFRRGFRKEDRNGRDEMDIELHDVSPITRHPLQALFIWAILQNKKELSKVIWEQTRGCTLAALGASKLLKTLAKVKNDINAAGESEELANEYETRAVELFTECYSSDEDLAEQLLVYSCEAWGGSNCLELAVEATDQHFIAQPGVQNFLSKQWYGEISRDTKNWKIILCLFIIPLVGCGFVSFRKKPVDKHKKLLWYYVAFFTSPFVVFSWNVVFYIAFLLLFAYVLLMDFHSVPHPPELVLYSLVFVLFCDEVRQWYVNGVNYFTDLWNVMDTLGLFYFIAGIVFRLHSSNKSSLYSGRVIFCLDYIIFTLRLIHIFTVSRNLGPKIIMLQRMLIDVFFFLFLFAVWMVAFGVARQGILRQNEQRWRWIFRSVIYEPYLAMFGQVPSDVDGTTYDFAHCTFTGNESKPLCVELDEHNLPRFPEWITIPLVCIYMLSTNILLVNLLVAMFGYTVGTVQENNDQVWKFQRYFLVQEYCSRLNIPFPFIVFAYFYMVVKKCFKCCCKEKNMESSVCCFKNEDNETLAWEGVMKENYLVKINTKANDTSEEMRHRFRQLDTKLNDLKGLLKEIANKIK
T2 sequence (Q8NER1 whole entry): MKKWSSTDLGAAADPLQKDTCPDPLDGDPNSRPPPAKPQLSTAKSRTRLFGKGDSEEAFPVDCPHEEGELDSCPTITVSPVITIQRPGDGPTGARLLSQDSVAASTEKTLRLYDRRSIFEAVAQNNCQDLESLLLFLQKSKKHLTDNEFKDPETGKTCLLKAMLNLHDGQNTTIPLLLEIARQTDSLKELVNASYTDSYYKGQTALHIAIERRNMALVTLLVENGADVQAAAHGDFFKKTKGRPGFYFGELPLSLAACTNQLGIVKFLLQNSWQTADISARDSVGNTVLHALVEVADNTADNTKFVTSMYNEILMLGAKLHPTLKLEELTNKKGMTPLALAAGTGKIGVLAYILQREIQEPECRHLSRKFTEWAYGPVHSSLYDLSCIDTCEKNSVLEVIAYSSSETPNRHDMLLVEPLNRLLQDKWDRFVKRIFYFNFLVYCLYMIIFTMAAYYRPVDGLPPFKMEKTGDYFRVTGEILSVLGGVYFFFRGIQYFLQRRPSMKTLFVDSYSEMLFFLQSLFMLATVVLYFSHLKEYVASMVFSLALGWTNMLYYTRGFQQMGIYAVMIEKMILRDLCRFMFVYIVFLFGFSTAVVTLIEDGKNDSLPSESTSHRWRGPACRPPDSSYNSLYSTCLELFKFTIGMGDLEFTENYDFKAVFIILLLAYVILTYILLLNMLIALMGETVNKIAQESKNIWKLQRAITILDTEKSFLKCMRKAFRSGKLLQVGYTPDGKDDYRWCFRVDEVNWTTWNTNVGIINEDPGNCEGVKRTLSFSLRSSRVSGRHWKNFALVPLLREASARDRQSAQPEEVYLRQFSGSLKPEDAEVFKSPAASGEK
T3 sequence (O75762 whole entry): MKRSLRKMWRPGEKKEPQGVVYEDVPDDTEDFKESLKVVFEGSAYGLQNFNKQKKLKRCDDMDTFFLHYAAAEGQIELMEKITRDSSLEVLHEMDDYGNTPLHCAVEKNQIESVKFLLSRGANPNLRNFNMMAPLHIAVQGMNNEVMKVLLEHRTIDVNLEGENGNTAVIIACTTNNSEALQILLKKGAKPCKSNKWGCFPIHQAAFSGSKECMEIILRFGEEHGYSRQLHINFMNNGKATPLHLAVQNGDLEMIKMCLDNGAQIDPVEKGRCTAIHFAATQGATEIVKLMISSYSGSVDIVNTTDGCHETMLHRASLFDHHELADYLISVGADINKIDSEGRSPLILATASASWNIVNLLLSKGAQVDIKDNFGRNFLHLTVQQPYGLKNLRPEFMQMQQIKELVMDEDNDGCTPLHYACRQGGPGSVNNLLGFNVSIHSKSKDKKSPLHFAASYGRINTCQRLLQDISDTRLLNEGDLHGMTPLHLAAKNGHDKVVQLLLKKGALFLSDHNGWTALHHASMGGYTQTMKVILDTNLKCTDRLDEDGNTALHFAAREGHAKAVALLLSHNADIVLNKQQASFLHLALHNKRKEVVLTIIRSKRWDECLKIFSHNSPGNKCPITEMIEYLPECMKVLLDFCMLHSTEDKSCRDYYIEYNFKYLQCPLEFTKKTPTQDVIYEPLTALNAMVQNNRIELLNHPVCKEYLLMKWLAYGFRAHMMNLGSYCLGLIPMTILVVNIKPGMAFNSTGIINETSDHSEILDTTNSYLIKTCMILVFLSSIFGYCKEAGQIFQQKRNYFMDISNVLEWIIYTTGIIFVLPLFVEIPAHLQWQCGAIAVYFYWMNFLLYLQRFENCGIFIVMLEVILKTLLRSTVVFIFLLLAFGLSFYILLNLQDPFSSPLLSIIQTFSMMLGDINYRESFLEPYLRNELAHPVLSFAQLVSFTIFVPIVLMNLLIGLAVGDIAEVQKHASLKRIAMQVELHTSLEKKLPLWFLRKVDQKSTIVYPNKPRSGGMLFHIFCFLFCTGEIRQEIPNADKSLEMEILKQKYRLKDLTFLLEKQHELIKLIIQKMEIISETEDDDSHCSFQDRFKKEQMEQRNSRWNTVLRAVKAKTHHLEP

Compound: CC(C)OC(=O)CNC(=O)[C@@H]1C[C@H](C)CC[C@H]1C(C)C [Ax-8]
- Duraton [2]: 35 min
- Discomfort [2]: yes
- Onset [2]: 5
- Eyelids Surfaces (Eyelids Surfaces): 300 min
- Philtrum Skin (Philtrum Skin): 27 min
- Potency relative to menthol [3]: 7.6
- EC50 [3]: 0.5 µM

Compound: CCOC(=O)C(C)NC(=O)[C@@H]1C[C@H](C)CC[C@H]1C(C)C (stereo partly drawn) [D-Ala-OEt]
- Eyelids Surfaces (Eyelids Surfaces): 180 min
- Philtrum Skin (Philtrum Skin): 103 min
- Potency relative to menthol [3]: 14.0

Compound: CC(C)OC(=O)C(C)NC(=O)[C@@H]1C[C@H](C)CC[C@H]1C(C)C (stereo partly drawn) [D-Ala-OiPr]
- Eyelids Surfaces (Eyelids Surfaces): 360 min
- Philtrum Skin (Philtrum Skin): 34 min
- Potency relative to menthol [3]: 14.6

Compound: CCCCP(=O)(C(C)CC)C(C)CC (stereo not drawn) [DAPA-2-4, 1-Di(sec-butyl)-phosphinoyl-butane]
- Relative Potency to L-menthol [3]: 0.3

Compound: CCCCCP(=O)(C(C)CC)C(C)CC (stereo not drawn) [DAPA-2-5, 1-di-sec-butyl-phosphorylpentane]
- Relative Potency to L-menthol [3]: 2.2

Compound: CCCCCCP(=O)(C(C)CC)C(C)CC (stereo not drawn) [DAPA-2-6, 1-Di(sec-butyl)-phosphinoyl-hexane]
- Adam's Apple ([2]; cooling felt at Adam's apple, Shaped-Gel): +++ icy
- Jugular Notch ([2]; Shaped-Gel): ++ icy
- Duraton [2]: 30 min
- Discomfort [2]: yes
- Onset [2]: <3
- Relative Potency to L-menthol [3]: 4.7
- unpleasant taste, description (Oral Cavity and Pharynx [4]; 5 mg/mL): “metallic”, “organic solvent-like”, and “harsh”
- sensations produced (cooling intensity, cold discomfort, adverse taste) (Oral Cavity and Pharynx [4]; 5 mg/mL): cold, icy cold, and adverse tastes

Compound: CCCCCCCP(=O)(C(C)CC)C(C)CC (stereo not drawn) [DAPA-2-7, 1-Di(sec-butyl)-phosphinoyl-heptane]
- Relative Potency to L-menthol [3]: 3.4
- unpleasant taste, description (Oral Cavity and Pharynx [4]; 5 mg/mL): “metallic”, “organic solvent-like”, and “harsh”
- sensations produced (cooling intensity, cold discomfort, adverse taste) (Oral Cavity and Pharynx [4]; 5 mg/mL): cold, icy cold, and adverse tastes

Compound: CCCCCP(=O)(CC(C)C)CC(C)C [DAPA-3-1, 1-di(iso-butyl) phosphinoyl-pentane]
- TRPM8 potency / bioactivity in words [3]: significant loss of bioactivity
- Relative Potency to L-menthol [3]: 0.2

Compound: CCC(C)P(=O)(CCC(C)C)C(C)CC (stereo not drawn) [DAPA-3-2, 1-Di(sec-butyl)-phosphinoyl-3-methyl-butane]
- TRPM8 potency / bioactivity in words [3]: significant loss of bioactivity
- Relative Potency to L-menthol [3]: 0.9

Compound: CCOC(=O)CNC(=O)[C@@H]1C[C@H](C)CC[C@H]1C(C)C [WS-5]
- Discomfort ([2]; both, human): 0
- Duraton [2]: 25 min
- Onset [2]: ~3
- Eyelids Surfaces (Eyelids Surfaces): 15 min
- Philtrum Skin (Philtrum Skin): 24 min
- Potency relative to menthol [3]: 10.6
- EC50 [3]: 0.36 µM

Compound: COc1ccc(NC(=O)[C@@H]2C[C@H](C)CC[C@H]2C(C)C)cc1 [WS-12]
- Jugular Notch ([2]; Shaped-Gel): 0
- Sternum ([2]; cooling felt at sternum, Shaped-Gel): 0
- Duraton [2]: 20 min
- Discomfort [2]: 0
- Onset [2]: 5

Compound: CC1CCC(C(C)C)C(C(=O)OCC(O)CO)C1 (stereo not drawn) [WS-30]
- Duraton [2]: 25 min
- Discomfort [2]: 0
- Onset [2]: ~3

Further lines, with some results ahead:

- solubility [1]: 20 mg/mL (≈ 81.2 mM)
Compound: CCCCCCC[P@@](=O)(C(C)C)C(C)CC (stereo partly drawn) [3,4-7, 1-(Isopropyl-sec-butyl)-phosphinoyl-heptane]

- Relative Potency to L-menthol [3]: 2.9
Compound: CCCCCCCCP(=O)(C(C)CC)C(C)CC (stereo not drawn) [DAPA-2-8, 1-Di(sec-butyl)-phosphinoyl-octane]
- unpleasant taste, description (Oral Cavity and Pharynx [4]; 5 mg/mL): “metallic”, “organic solvent-like”, and “harsh”

- Relative Potency to L-menthol [3]: 0.7
Compound: CCCCCP(=O)(C(C)C)C(C)C [DIPA-1-5, 1-Di(isopropyl)-phosphinoyl-pentane]

- Relative Potency to L-menthol [3]: 1.6
Compound: CCCCCCP(=O)(C(C)C)C(C)C [DIPA-1-6, 1-Di(isopropyl)-phosphinoyl-hexane]

- Relative Potency to L-menthol [3]: 5.4
- strong metallic taste (Oral Cavity and Pharynx [4]; in vivo): present
Compound: CCCCCCCP(=O)(C(C)C)C(C)C [DIPA-1-7, 1-Di(isopropyl)-phosphinoyl-heptane]
- selectivity: TRPM8 versus TRPV1 [5]: Selectivity is also seen
- cold discomfort (Oral Cavity and Pharynx [4]; 5 mg/mL): icy cold; also recorded: icy pain in the back of the throat
- unpleasant taste, description (Oral Cavity and Pharynx [4]; 5 mg/mL): “metallic”, “organic solvent-like”, and “harsh”
- sensations produced (cooling intensity, cold discomfort, adverse taste) (Oral Cavity and Pharynx [4]; 5 mg/mL): cold, icy cold, and adverse tastes
- selectivity: TRPM8 versus TRPA1 [6]: Selectivity is also seen

- Relative Potency to L-menthol [3]: 5.4
- strong metallic taste (Oral Cavity and Pharynx [4]; in vivo): present
Compound: CCCCCCCCP(=O)(C(C)C)C(C)C [DIPA-1-8, 1-Di(isopropyl)-phosphinoyl-octane]
- selectivity: TRPM8 versus TRPV1 [5]: Selectivity is also seen
- unpleasant taste, description (Oral Cavity and Pharynx [4]; 5 mg/mL): “metallic”, “organic solvent-like”, and “harsh”
- sensations produced (cooling intensity, cold discomfort, adverse taste) (Oral Cavity and Pharynx [4]; 5 mg/mL): cold, icy cold, and adverse tastes
- selectivity: TRPM8 versus TRPA1 [6]: Selectivity is also seen

- Discomfort ([2]; both, human): 0
- Relative Potency to L-menthol [3]: 4.0
- strong metallic taste (Oral Cavity and Pharynx [4]; in vivo): does not have a strong metallic taste
Compound: CCCCCCCCCP(=O)(C(C)C)C(C)C [DIPA-1-9, 1-Di(isopropyl)-phosphinoyl-nonane]
- onset of sensation of coolness in the throat ([2]; Shaped-Gel applied to base of tongue): 3 min
- Duraton [2]: ~60 min
- Onset [2]: <3
- selectivity: TRPM8 versus TRPV1 [5]: selective for TRPM8 and not TRPVI and TRPA1
- sensations produced (cooling intensity, cold discomfort, adverse taste) (Oral Cavity and Pharynx [4]; 5 mg/mL): coolness and cold which was well-tolerated
- general sense of refreshment in the throat, persistence (Oral Cavity and Pharynx [4]; in vivo): ≥ 3 h
- selectivity: TRPM8 versus TRPA1 [6]: selective for TRPM8 and not TRPVI and TRPA1
- icy cold, pain or discomfort at increased concentration (Oral Cavity and Pharynx [7]; 5, 8 to 15 mg/mL, 0.8 mL per dose): no pain or discomfort; also recorded: did not produce icy cold or pain
- sensation in the oropharynx and esophagus (Oral Cavity and Pharynx [7]; optimized concentrations of 5 to 10 mg/mL): perfect cool in the oropharynx and esophagus but without cold discomfort
